This note sets out measurements from ChEMBL document CHEMBL1201862, “PubChem BioAssay data set” (2004).

Some test systems named below: CAKI-1; CCRF-CEM; EKVX; HCT-15; HT-29; IGROV-1; K562; M14; MDA-MB-231; MOLT-4; Malme-3M; NCI-H23; NCI/ADR-RES; OVCAR-5; SK-MEL-2; SNB-19; UACC-257; HCC 2998; LOX IMVI; RXF 393.
Holding throughout (experiment): DTP human tumour cell line panel, 48 h

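A five-concentration, 48-hour dose response in 96-well plates underlies each endpoint, interpolated linearly between surrounding concentrations. GI50 marks 50% less growth.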 The source made the active and inactive calls. Cut-off read from the data, not from the text of the source: active = GI50 up to about 1.1 µM and inactive = higher.

For `CN1C2=Nc3n(C)c4ccccc4[n+]3CN2c2ccccc21`, the GI50 (commonly the concentration giving 50% growth inhibition) with CAKI-1 was > 100 µM (inactive); in the experiment with CCRF-CEM, 47.4 µM (inactive); with EKVX, 36.1 µM (inactive); in the experiment on HCT-15, > 100 µM; with HT-29, 38 µM (inactive); in the experiment with IGROV-1, 29.9 µM (inactive). Further, the GI50 in the experiment with K562 is 29.5 µM (inactive); with M14 it was 43.7 µM (inactive); with MDA-MB-231 it was 34.6 µM (inactive); in the experiment on MOLT-4, 16.8 µM (inactive); in the experiment on Malme-3M, 4.21 µM (inactive); in the experiment on NCI-H23 it was 26.5 µM (inactive). Further, the GI50 is > 100 µM (inactive) in the experiment with NCI/ADR-RES; 84.1 µM (inactive) in the experiment with OVCAR-5; 18.4 µM (inactive) with SK-MEL-2; 35.3 µM (inactive) with SNB-19; 32.1 µM (inactive) in the experiment with UACC-257.
In the case of `CC(=O)OCCCOCn1c(Cc2ccccc2)c(C)c(=O)[nH]c1=O`, the GI50 in the experiment with CAKI-1 was > 100 µM (inactive); with CCRF-CEM, > 100 µM (inactive); with EKVX, > 100 µM (inactive); in the experiment on HCC 2998 it was > 100 µM (inactive); in the experiment with HCT-15, > 100 µM; in the experiment on HT-29, > 100 µM (inactive). The GI50 with IGROV-1, with K562, with LOX IMVI, in the experiment with M14, in the experiment with MDA-MB-231 and in the experiment on MOLT-4 was > 100 µM (inactive) in each case. Also, the GI50 in the experiment on Malme-3M, in the experiment on NCI-H23, in the experiment with OVCAR-5, with RXF 393, in the experiment on SK-MEL-2 and with SNB-19 was > 100 µM (inactive) throughout. In the experiment with UACC-257, the GI50 was > 100 µM (inactive).
Turning to `Cc1c(Cl)nc(Nc2nc3ccccc3[nH]2)nc1Cl`, the GI50 in the experiment with CAKI-1 is 6.71 µM (inactive); with EKVX it was 21.9 µM (inactive); with HCT-15, > 100 µM; in the experiment on HT-29, 25 µM (inactive); with IGROV-1, 36.2 µM (inactive); with K562, > 100 µM (inactive). Moreover, the GI50 with M14 was > 100 µM (inactive); in the experiment on MOLT-4, > 100 µM (inactive); in the experiment on Malme-3M it was > 100 µM (inactive); with NCI-H23 it was 92.9 µM (inactive); with NCI/ADR-RES, > 100 µM (inactive); in the experiment on OVCAR-5, > 100 µM (inactive). In addition, the GI50 in the experiment with RXF 393, in the experiment with SK-MEL-2, in the experiment with SNB-19 and with UACC-257 was > 100 µM (inactive) throughout.
Take `O=C(N/C(=C\c1ccc(/C=C(\NC(=O)c2ccccc2)c2nc3c(O)nc(S)nc3[nH]2)cc1)c1nc2c(O)nc(S)nc2[nH]1)c1ccccc1`: the GI50 was > 100 µM (inactive) with CAKI-1; 26.2 µM (inactive) in the experiment on CCRF-CEM; > 100 µM (inactive) with EKVX; > 100 µM (inactive) in the experiment with HCC 2998; > 100 µM in the experiment with HCT-15; 75 µM (inactive) with HT-29. Besides, the GI50 with IGROV-1 was > 100 µM (inactive); with K562 it was 30.3 µM (inactive); in the experiment with LOX IMVI it was 38 µM (inactive); in the experiment on M14, > 100 µM (inactive); in the experiment on MOLT-4, 43 µM (inactive); in the experiment with Malme-3M, > 100 µM (inactive). Moreover, the GI50 with NCI-H23 was 55.7 µM (inactive); in the experiment with OVCAR-5, > 100 µM (inactive); in the experiment with RXF 393, 38.6 µM (inactive); with SK-MEL-2, 8.71 µM (inactive); in the experiment on SNB-19, > 100 µM (inactive); in the experiment with UACC-257, > 100 µM (inactive).
As for `CN(C)C(=O)c1ccc([N+](=O)[O-])cc1`, the GI50 is > 100 µM (inactive) in the experiment with CAKI-1; > 100 µM (inactive) with CCRF-CEM; > 100 µM (inactive) in the experiment on EKVX; > 100 µM (inactive) in the experiment with HCC 2998; > 100 µM in the experiment with HCT-15; > 100 µM (inactive) with HT-29. Moreover, the GI50 with IGROV-1, in the experiment on K562, with LOX IMVI, in the experiment on M14, with MOLT-4 and in the experiment on Malme-3M was > 100 µM (inactive) throughout. Further, the GI50 in the experiment on NCI-H23, in the experiment with OVCAR-5, with RXF 393, in the experiment on SK-MEL-2, in the experiment with SNB-19 and with UACC-257 was > 100 µM (inactive) each time.
`O=C(NC(=S)Nc1ccc([N+](=O)[O-])cc1)c1ccc2c(c1)Sc1ccccc1O2`: the GI50 with CAKI-1 was > 100 µM (inactive); in the experiment with CCRF-CEM, > 100 µM (inactive); in the experiment with HCT-15 it was > 100 µM; in the experiment on HT-29 it was > 100 µM (inactive); in the experiment with IGROV-1 it was 98.2 µM (inactive); with K562, > 100 µM (inactive). The GI50 was > 100 µM (inactive) with LOX IMVI; > 100 µM (inactive) with M14; > 100 µM (inactive) in the experiment with MDA-MB-231; > 100 µM (inactive) with MOLT-4; 65.8 µM (inactive) in the experiment on Malme-3M; > 100 µM (inactive) in the experiment with NCI-H23. Besides, the GI50 in the experiment with NCI/ADR-RES was > 100 µM (inactive); in the experiment with OVCAR-5, > 100 µM (inactive); in the experiment with SK-MEL-2, 99.1 µM (inactive); in the experiment on SNB-19, 53.3 µM (inactive); in the experiment with UACC-257, > 100 µM (inactive).
On to `CC(C)c1c2[nH]c3ccccc3c2c(C(C)C)c2[nH]c3ccccc3c12`, for which the GI50 with CAKI-1 is > 76.6 µM (inactive); in the experiment on CCRF-CEM it was > 52.5 µM (inactive); in the experiment with EKVX, > 100 µM (inactive); in the experiment on HCC 2998 it was > 34.8 µM (inactive); with HCT-15, 16 µM; with HT-29 it was 10.9 µM (inactive). The GI50 in the experiment with IGROV-1 is > 100 µM (inactive); in the experiment on K562 it was 7.78 µM (inactive); in the experiment with LOX IMVI, 35.5 µM (inactive); with M14, > 74.8 µM (inactive); with MOLT-4, > 63.2 µM (inactive); in the experiment on Malme-3M, > 51.4 µM (inactive). Besides, the GI50 with NCI-H23 was > 100 µM (inactive); in the experiment on OVCAR-5 it was 47.5 µM (inactive); in the experiment with RXF 393, > 100 µM (inactive); with SK-MEL-2 it was > 100 µM (inactive); with SNB-19 it was > 100 µM (inactive); in the experiment with UACC-257 it was > 100 µM (inactive).
For the molecule `c1cc2cc(Cc3ccc4[nH]ccc4c3)ccc2[nH]1`, the GI50 in the experiment with CAKI-1 was 17.1 µM (inactive); with CCRF-CEM, 21.9 µM (inactive); with EKVX it was 15.3 µM (inactive); with HCC 2998, 15.3 µM (inactive); in the experiment on HCT-15, 13.9 µM; with HT-29 it was 16.8 µM (inactive). The GI50 with IGROV-1 is 15.9 µM (inactive); in the experiment on K562, 10 µM (inactive); with LOX IMVI it was 27.8 µM (inactive); with M14, 17.1 µM (inactive); with MDA-MB-231 it was 16.5 µM (inactive); in the experiment with MOLT-4, 10.7 µM (inactive). The GI50 with Malme-3M is 15.2 µM (inactive); with NCI-H23, 18.6 µM (inactive); with OVCAR-5, 19.5 µM (inactive); in the experiment with RXF 393, 19.6 µM (inactive); in the experiment with SK-MEL-2, 22.4 µM (inactive); with SNB-19 it was 21.5 µM (inactive). Further, in the experiment with UACC-257, the GI50 was 21.9 µM (inactive).
In the case of `O=C(CCl)N1CCN(c2ccccn2)CC1`, the GI50 in the experiment with CAKI-1 was 19.3 µM (inactive); in the experiment with CCRF-CEM it was 19.9 µM (inactive); in the experiment with EKVX, 26.9 µM (inactive); in the experiment with HCC 2998 it was 19.4 µM (inactive); in the experiment on HCT-15, > 10 µM; in the experiment on HT-29, 17.7 µM (inactive). Moreover, the GI50 was 21.3 µM (inactive) in the experiment on IGROV-1; 31.7 µM (inactive) with K562; 16.6 µM (inactive) in the experiment with M14; 31.7 µM (inactive) in the experiment on MOLT-4; 16.8 µM (inactive) with Malme-3M; 19.8 µM (inactive) in the experiment on NCI-H23. In addition, the GI50 in the experiment with NCI/ADR-RES is 27.2 µM (inactive); with OVCAR-5 it was 20.7 µM (inactive); in the experiment with RXF 393, 23.4 µM (inactive); in the experiment with SNB-19, 57.1 µM (inactive); in the experiment with UACC-257, 30.3 µM (inactive).
Regarding `O/N=C1/CCC/C1=C\c1ccccc1`, the GI50 was > 100 µM (inactive) in the experiment on CAKI-1; > 100 µM (inactive) with CCRF-CEM; 21.9 µM (inactive) in the experiment on EKVX; > 100 µM (inactive) in the experiment on HCC 2998; > 100 µM in the experiment on HCT-15; > 10 µM (inactive) in the experiment on HT-29. For the same molecule, the GI50 in the experiment on IGROV-1 is > 100 µM (inactive); with K562, 74.1 µM (inactive); in the experiment on LOX IMVI, > 100 µM (inactive); with M14, > 100 µM (inactive); in the experiment with MOLT-4, 42.6 µM (inactive); with Malme-3M it was > 100 µM (inactive). The GI50 in the experiment with NCI-H23 was > 100 µM (inactive); in the experiment with OVCAR-5, 67.5 µM (inactive); with RXF 393, 96.6 µM (inactive); in the experiment with SK-MEL-2 it was > 100 µM (inactive); in the experiment on SNB-19 it was > 100 µM (inactive); in the experiment on UACC-257 it was > 100 µM (inactive).
With `Cc1cc(S(N)(=O)=O)c(SCc2nc(N)nc(N(C)C)n2)cc1Cl`, the GI50 in the experiment on CAKI-1 is > 10 µM (inactive); in the experiment on CCRF-CEM, > 10 µM (inactive); in the experiment on EKVX, > 10 µM (inactive); in the experiment on HCC 2998, > 10 µM (inactive); in the experiment on HCT-15, > 10 µM; in the experiment with HT-29, > 10 µM (inactive). Besides, the GI50 in the experiment on IGROV-1, in the experiment with K562, in the experiment on LOX IMVI, in the experiment on M14, with MOLT-4 and in the experiment with Malme-3M was > 10 µM (inactive) each time. The GI50 in the experiment with NCI-H23, in the experiment on NCI/ADR-RES, with OVCAR-5, with RXF 393, in the experiment with SK-MEL-2 and in the experiment on SNB-19 was > 10 µM (inactive) throughout. In the experiment with UACC-257, the GI50 is > 10 µM (inactive).
